From ChEMBL document CHEMBL1151766, “Engineering stabilized vascular endothelial growth factor-A antagonists: synthesis, structural characterization, and bioactivity of grafted analogues of cyclotides” (J Med Chem, 2008)

Tests used:
BaF3 = test: Cytotoxicity against VEGF-A induced mouse BAF3-VEGF-R2 cells at >10 uM; format: functional, cell-based
[1] = Toxicity in human erythrocytes assessed as hemolytic activity at 50 uM; format: cell-based, Erythrocyte; details: read-out: Activity

Compound | Activity (BaF3) | hemolysis at 50 µM [1] [%]
CC(C)C[C@@H]1NC(=O)CNC(=O)[C@H](CC(N)=O)NC(=O)[C@H](CCCNC(=N)N)NC(=O)[C@H]([C@@H](C)O)NC(=O)[C@H](CS)NC(=O)[C@H](C(C)C)NC(=O)[C@@H]2CCCN2C(=O)[C@H](CCC(=O)O)NC(=O)[C@H](CO)NC(=O)[C@H](CS)NC(=O)[C@H]([C@@H](C)O)NC(=O)[C@H](CS)NC(=O)CNC(=O)[C@@H]2CCCN2C(=O)[C@H]([C@@H](C)O)NC(=O)[C@H](CC(N)=O)NC(=O)[C@H](CS)NC(=O)[C@H]([C@@H](C)O)NC(=O)CNC(=O)CNC(=O)[C@H](C(C)C)NC(=O)[C@H](CS)NC(=O)[C@H]([C@@H](C)O)NC(=O)[C@H](CCC(=O)O)NC(=O)CNC(=O)[C@H](CS)NC(=O)[C@H](C(C)C)NC(=O)[C@@H]2CCCN2C1=O | Toxic | 
CC(C)C[C@@H]1NC(=O)CNC(=O)[C@H](CC(N)=O)NC(=O)[C@H](CCCNC(=N)N)NC(=O)[C@H]([C@@H](C)O)NC(=O)[C@@H]2CSSC[C@@H]3NC(=O)[C@H]([C@@H](C)O)NC(=O)CNC(=O)CNC(=O)[C@H](C(C)C)NC(=O)[C@@H]4CSSC[C@H](NC(=O)[C@H]([C@@H](C)O)NC(=O)[C@H](CSSC[C@H](NC(=O)[C@H](C(C)C)NC(=O)[C@@H]5CCCN5C1=O)C(=O)NCC(=O)N[C@@H](CCC(=O)O)C(=O)N[C@@H]([C@@H](C)O)C(=O)N4)NC(=O)CNC(=O)[C@@H]1CCCN1C(=O)[C@H]([C@@H](C)O)NC(=O)[C@H](CC(N)=O)NC3=O)C(=O)N[C@@H](CO)C(=O)N[C@@H](Cc1c[nH]c3ccccc13)C(=O)N1CCC[C@H]1C(=O)N[C@@H](C(C)C)C(=O)N2 [KALATA B1] |  | 50
